Measured values taken from BindingDB's records for doi:10.1124/jpet.106.101428 (Eli Lilly, 2006).

Experiments:
[1] = target: T1, Glutamate receptor ionotropic, kainate 5 (Homo sapiens, UniProt Q16478)
T1 sequence (Q16478 whole entry): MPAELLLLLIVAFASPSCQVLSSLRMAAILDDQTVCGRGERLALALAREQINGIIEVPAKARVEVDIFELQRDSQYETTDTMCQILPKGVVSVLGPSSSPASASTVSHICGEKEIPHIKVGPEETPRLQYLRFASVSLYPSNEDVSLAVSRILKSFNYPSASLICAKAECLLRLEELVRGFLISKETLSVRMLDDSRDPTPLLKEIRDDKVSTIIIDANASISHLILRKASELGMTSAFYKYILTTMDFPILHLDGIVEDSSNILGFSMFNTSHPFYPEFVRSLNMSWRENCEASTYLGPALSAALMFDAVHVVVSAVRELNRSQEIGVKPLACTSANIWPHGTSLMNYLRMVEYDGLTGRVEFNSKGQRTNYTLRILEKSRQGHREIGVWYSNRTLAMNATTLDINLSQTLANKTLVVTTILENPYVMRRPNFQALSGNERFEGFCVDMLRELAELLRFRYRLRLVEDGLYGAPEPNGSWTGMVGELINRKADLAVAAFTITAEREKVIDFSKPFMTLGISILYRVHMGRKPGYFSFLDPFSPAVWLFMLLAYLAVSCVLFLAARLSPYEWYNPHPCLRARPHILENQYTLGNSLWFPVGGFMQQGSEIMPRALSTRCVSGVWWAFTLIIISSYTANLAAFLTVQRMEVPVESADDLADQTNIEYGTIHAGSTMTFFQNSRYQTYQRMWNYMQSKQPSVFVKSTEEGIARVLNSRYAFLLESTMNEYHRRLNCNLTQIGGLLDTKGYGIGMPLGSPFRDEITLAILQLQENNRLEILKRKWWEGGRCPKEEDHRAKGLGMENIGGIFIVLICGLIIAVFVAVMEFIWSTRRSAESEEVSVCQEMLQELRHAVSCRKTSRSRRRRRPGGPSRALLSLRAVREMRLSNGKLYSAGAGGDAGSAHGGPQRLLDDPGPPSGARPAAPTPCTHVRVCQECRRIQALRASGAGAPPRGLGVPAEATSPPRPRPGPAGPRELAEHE

[2] = target: Glutamate receptor 2 (Homo sapiens, UniProt P42262)
[3] = target: Glutamate receptor ionotropic, kainate 3 (Homo sapiens, UniProt Q13003)
[4] = target: Glutamate receptor ionotropic, kainate 2 (Homo sapiens, UniProt Q13002)
[5] = target: Glutamate receptor 1 (Homo sapiens, UniProt P42261)
[6] = target: Glutamate receptor 4 (Homo sapiens, UniProt P48058)
Chain of Glutamate receptor 4 (P48058 whole entry): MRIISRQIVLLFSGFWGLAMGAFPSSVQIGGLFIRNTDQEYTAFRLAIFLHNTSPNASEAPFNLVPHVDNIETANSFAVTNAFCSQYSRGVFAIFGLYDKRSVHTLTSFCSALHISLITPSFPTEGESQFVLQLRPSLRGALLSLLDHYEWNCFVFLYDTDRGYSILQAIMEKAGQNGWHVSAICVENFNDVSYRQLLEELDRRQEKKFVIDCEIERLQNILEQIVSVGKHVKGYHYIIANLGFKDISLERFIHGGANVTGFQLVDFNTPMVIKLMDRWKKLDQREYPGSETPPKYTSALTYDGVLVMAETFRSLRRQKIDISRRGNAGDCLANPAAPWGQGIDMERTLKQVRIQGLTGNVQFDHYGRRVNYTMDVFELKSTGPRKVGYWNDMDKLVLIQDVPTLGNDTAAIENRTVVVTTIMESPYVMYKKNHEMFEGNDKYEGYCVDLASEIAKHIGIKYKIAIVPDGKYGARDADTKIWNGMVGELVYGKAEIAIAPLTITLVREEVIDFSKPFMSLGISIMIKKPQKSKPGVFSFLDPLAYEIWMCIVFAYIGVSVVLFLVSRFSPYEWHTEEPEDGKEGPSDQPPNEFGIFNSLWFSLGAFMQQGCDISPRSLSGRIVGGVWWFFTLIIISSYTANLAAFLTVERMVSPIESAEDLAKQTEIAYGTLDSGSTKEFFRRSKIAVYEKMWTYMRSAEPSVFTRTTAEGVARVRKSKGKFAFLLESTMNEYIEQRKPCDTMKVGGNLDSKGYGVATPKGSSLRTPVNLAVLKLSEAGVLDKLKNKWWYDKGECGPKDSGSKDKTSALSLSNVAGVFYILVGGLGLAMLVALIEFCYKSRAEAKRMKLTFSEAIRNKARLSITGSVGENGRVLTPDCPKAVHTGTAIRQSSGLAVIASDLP

Chain of Glutamate receptor ionotropic, kainate 2 (Q13002 whole entry): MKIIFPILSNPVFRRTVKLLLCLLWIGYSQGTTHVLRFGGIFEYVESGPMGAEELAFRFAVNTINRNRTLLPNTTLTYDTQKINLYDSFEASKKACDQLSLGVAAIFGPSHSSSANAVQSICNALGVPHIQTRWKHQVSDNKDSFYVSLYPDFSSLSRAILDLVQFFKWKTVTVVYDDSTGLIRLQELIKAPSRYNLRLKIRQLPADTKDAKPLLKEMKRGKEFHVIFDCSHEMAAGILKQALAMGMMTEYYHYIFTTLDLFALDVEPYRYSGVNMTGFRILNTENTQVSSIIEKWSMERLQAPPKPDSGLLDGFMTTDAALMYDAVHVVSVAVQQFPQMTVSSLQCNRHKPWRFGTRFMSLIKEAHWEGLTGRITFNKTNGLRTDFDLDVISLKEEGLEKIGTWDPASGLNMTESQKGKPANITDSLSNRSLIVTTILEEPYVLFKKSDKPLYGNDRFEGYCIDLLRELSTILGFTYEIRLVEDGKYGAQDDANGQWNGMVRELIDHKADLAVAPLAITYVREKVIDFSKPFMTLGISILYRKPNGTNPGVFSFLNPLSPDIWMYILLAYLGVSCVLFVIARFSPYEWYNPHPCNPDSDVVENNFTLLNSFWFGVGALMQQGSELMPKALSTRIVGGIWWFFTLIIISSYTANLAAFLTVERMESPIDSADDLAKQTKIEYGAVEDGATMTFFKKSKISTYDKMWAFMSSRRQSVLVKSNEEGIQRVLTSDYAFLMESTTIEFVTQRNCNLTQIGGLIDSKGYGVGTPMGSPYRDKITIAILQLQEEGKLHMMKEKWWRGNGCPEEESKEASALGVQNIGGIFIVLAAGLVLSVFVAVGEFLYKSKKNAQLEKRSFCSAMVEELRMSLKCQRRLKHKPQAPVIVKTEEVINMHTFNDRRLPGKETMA
Chain of Glutamate receptor 2 (P42262 whole entry): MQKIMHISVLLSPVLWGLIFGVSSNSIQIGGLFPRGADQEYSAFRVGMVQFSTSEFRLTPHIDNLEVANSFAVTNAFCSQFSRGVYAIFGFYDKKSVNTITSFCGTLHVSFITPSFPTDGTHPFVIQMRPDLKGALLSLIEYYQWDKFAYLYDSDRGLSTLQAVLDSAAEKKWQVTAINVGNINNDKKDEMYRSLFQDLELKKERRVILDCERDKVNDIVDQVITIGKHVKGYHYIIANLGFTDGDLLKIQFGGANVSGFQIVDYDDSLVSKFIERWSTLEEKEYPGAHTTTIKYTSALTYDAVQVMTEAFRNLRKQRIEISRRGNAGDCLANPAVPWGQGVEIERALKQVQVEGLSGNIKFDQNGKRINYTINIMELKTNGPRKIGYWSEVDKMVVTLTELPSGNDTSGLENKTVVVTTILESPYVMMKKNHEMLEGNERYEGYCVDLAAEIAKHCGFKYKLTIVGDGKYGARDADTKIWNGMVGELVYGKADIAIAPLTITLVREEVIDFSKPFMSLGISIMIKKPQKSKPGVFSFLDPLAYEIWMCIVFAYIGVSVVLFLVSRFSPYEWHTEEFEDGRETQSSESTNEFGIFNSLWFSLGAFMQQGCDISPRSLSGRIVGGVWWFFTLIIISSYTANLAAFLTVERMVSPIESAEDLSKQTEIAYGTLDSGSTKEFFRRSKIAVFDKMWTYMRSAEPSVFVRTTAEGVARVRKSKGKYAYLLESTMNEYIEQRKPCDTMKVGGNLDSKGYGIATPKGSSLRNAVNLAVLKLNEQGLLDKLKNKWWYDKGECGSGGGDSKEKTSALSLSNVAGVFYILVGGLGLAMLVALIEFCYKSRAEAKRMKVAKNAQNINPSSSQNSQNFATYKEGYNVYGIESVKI
Chain of Glutamate receptor ionotropic, kainate 3 (Q13003 whole entry): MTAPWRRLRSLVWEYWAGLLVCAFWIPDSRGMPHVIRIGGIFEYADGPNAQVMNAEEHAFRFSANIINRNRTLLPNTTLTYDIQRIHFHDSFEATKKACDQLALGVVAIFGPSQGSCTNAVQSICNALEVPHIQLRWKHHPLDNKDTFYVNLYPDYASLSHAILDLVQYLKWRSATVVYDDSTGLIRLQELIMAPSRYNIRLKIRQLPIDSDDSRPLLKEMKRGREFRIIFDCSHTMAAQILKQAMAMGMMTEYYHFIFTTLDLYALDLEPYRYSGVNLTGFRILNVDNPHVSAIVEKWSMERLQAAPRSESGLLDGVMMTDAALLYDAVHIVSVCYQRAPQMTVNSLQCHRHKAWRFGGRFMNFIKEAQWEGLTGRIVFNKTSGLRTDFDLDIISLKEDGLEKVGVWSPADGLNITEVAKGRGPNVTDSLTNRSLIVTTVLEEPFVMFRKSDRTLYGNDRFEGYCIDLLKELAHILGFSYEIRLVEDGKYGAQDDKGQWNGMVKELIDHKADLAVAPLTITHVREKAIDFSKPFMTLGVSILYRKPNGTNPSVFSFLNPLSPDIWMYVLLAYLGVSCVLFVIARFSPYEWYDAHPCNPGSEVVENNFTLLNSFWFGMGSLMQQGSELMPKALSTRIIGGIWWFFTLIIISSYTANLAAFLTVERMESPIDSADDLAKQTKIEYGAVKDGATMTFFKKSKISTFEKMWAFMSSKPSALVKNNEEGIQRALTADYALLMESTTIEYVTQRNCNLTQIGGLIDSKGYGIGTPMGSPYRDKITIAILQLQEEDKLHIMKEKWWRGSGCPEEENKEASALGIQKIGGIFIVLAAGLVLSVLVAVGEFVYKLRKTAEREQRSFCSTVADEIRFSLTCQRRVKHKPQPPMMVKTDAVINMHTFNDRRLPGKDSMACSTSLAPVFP
Chain of Glutamate receptor 1 (P42261 whole entry): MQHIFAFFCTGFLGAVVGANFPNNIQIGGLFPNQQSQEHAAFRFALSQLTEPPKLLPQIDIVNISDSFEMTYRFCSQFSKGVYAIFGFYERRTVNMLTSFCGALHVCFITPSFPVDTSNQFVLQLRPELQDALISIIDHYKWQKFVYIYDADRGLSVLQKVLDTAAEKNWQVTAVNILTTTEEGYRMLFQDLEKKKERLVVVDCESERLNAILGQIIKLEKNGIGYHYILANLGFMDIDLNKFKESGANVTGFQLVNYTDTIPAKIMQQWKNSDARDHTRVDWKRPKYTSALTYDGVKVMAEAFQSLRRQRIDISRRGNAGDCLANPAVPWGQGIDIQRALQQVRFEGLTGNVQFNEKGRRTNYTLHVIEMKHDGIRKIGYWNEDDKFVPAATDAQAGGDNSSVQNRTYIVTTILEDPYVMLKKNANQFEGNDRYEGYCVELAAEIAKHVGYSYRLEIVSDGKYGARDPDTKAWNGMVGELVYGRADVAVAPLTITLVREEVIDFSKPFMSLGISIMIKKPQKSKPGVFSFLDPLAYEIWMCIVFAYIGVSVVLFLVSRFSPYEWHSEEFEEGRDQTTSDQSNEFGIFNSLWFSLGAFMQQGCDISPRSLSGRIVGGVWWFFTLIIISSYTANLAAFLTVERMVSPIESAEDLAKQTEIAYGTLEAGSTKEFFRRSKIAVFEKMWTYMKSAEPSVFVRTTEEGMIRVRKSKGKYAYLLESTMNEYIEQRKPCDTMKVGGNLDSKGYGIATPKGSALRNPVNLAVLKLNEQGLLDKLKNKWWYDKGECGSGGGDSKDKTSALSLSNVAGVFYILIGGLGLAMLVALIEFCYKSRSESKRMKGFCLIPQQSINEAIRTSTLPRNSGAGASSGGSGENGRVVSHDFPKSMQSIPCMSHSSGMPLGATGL

## O=C(O)c1ccc(C[C@H]2CC[C@H]3CN[C@H](C(=O)O)C[C@H]3C2)cc1 [LY 382884]
[1]
  Ki: 4 µM
[2]
  Ki: > 10 µM
[3]
  Ki: > 10 µM
[4]
  Ki: > 10 µM
[5]
  Ki: > 10 µM
[6]
  Ki: > 10 µM

## O=C(O)[C@@H]1C[C@H]2C[C@@H](Oc3ccccc3-c3nnn[nH]3)CC[C@H]2CN1 [LY-458545]
[1]
  Ki: 1.69 µM

## O=C(O)C1CC(F)(F)CN1C[C@H]1CC[C@H]2CN[C@H](C(=O)O)C[C@H]2C1 (some centres undefined) [LY-466195]
[1]
  Ki: 0.05 µM
[2]
  Ki: > 10 µM
[4]
  Ki: > 10 µM
[5]
  Ki: > 10 µM
[6]
  Ki: > 10 µM

## CCC(C)OC(=O)[C@@H]1C[C@H]2C[C@@H](Oc3ccccc3-c3nnn[nH]3)CC[C@H]2CN1 (some centres undefined) [LY-467711]
[1]
  Ki: 7.4 µM
[2]
  Ki: > 10 µM

## O=C(O)[C@@H]1C[C@H]2C[C@@H](Nc3ccccc3-c3nnn[nH]3)CC[C@H]2CN1 [LY 457691]
[1]
  Ki: 1.55 µM

## O=C(O)[C@@H]1C[C@H]2CC(COCc3nnn[nH]3)CC[C@H]2CN1 (some centres undefined) [LY-294486]
[1]
  Ki: 3.06 µM
[2]
  Ki: > 10 µM

## CCC(CC)COC(=O)[C@@H]1C[C@H]2C[C@@H](Nc3ccccc3-c3nnn[nH]3)CC[C@H]2CN1 [LY-525327]
[1]
  Ki: > 10 µM
[2]
  Ki: > 10 µM

## O=C(O)[C@@H]1C[C@H]2C[C@@H](CS(=O)(=O)c3nnc[nH]3)CC[C@H]2CN1 [LY-302679]
[1]
  Ki: 3.41 µM

## O=C(O)[C@@H]1C[C@H]2C[C@@H](CCc3nn[nH]n3)CC[C@H]2CN1
[1]
  Ki: 4.2 µM
[3]
  Ki: > 10 µM
[4]
  Ki: > 10 µM
[6]
  Ki: > 10 µM
